Read-outs that look alike come from different tables or passages of the source.
Columns and labels:
PHA-stimulated PBMC = assay: Radioactive proliferation assay, incorporation of 3H-thymidine, TIRC7-peptides; format: cell-based, human; details: PHA stimulation, 48 h, 3H-thymidine incorporation
Procedure: PBMC of healthy donors were isolated according to the Ficoll-Paque density centrifugation protocol. Samples of 50000 PBMC's/well were stimulated with PHA (1 μg/ml) and incubated for 48 h at 5% CO2, 37° C. in presence of TIRC7-peptides (see FIG. 4(B)) and controls (BSA) in a total volume of […]. Samples were run in triplicates on 96 well-microtiter-plates (MTP's). After 48 h 0.5 μCi ^3H-thymidine per well were added and the cells were reincubated for additional 18 h. Cells were harvested and lysed using a cell harvester and collected on nitrocellulose-filter-MTP's. Plates were dried at room temperature for 3 h. To enhance the radioactive signal produced by the samples a scintillation fluid was added and counts per minute were measured with a beta counter.

activated T-cells = details: alloactivation in mixed lymphocyte culture (MLR) or mitogens, Utku et al., Immunity 1998, cited from earlier work

Which “inhibition of proliferation of PHA-stimulated PBMC” value (PHA-stimulated PBMC; FIG. 5) does the source give for “P4: TIRC7-derived peptide (FIG. 4(B)), the one of 6 without significant inhibition of proliferation (VEFQNKFYSGTGYK; listed as Homo sapiens)” here?
Its value is “except peptide P4 all TIRC7-peptides inhibited proliferation”.

And the “inhibition of proliferation of PHA-stimulated PBMC” value (PHA-stimulated PBMC; FIG. 5, listed as SEQ ID NO: 11)?
Its value is “weaker if any activity”.

B1: TIRC7 protein: in vitro translated T-cell immune response cDNA 7 (TIRC7) protein (protein, UniProt Q13488 1-830, looked up)
V-type proton ATPase 116 kDa …: MGSMFRSEEVALVQLFLPTAAAYTCVSRLGELGLVEFRDLNASVSAFQRRFVVDVRRCEELEKTFTFLQEEVRRAGLVLPPPKGRLPAPPPRDLLRIQEETERLAQELRDVRGNQQALRAQLHQLQLHAAVLRQGHEPQLAAAHTDGASERTPLLQAPGGPHQDLRVNFVAGAVEPHKAPALERLLWRACRGFLIASFRELEQPLEHPVTGEPATWMTFLISYWGEQIGQKIRKITDCFHCHVFPFLQQEEARLGALQQLQQQSQELQEVLGETERFLSQVLGRVLQLLPPGQVQVHKMKAVYLALNQCSVSTTHKCLIAEAWCSVRDLPALQEALRDSSMEEGVSAVAHRIPCRDMPPTLIRTNRFTASFQGIVDAYGVGRYQEVNPAPYTIITFPFLFAVMFGDVGHGLLMFLFALAMVLAENRPAVKAAQNEIWQTFFRGRYLLLLMGLFSIYTGFIYNECFSRATSIFPSGWSVAAMANQSGWSDAFLAQHTMLTLDPNVTGVFLGPYPFGIDPIWSLAANHLSFLNSFKMKMSVILGVVHMAFGVVLGVFNHVHFGQRHRLLLETLPELTFLLGLFGYLVFLVIYKWLCVWAARAASAPSILIHFINMFLFSHSPSNRLLYPRQEVVQATLVVLALAMVPILLLGTPLHLLHRHRRRLRRRPADRQEENKAGLLDLPDASVNGWSSDEEKAGGLDDEEEAELVPSEVLMHQAIHTIEFCLGCVSNTASYLRLWALSLAHAQLSEVLWAMVMRIGLGLGREVGVAAVVLVPIFAAFAVMTVAILLVMEGLSAFLHALRLHWVEFQNKFYSGTGYKLSPFTFAATDD
modifications: in vitro translated
notes: in vitro translated T-cell immune response cDNA 7 (TIRC7) protein
Which “suppression of proliferation of T-cells” value (activated T-cells) does the source give for B1 here?
The value was “efficiently suppress in a dose dependent manner”.

And the “suppression of proliferation of T-cells” value (activated T-cells; listed as protein TIRC7)?
The value was “signifincantly suppressed”.

Reference: patent US20050048067A1, “Peptides capable of modulating immune response” (priority 2001, published 2005)
